# Test results as given in ChEMBL document CHEMBL1201862, “PubChem BioAssay data set” (2004).
#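 Five concentrations, 48 hours, 96-well plates. GI50 is the concentration that inhibits growth by half.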 Active and inactive are the calls of the source. Rule as the data show it: active = GI50 up to about 1.1 µM and inactive = higher.
# What was measured:
# Test in all cases: inhibition of tumour cell growth, NCI panel, 48 h
# [1] = test system: COLO 205
# [2] = test system: HCT-116
# [3] = test system: HOP-92
# [4] = test system: HT-29
# [5] = test system: K562
# [6] = test system: M14
# [7] = test system: MDA-MB-231
# [8] = test system: MDA-MB-435
# [9] = test system: MOLT-4
# [10] = test system: Malme-3M
# [11] = test system: OVCAR-3
# [12] = test system: RPMI-8226
# [13] = test system: SF-268
# [14] = test system: SK-MEL-28
# [15] = test system: SK-MEL-5
# [16] = test system: SR
# [17] = test system: SW-620
# [18] = test system: T47D
# [19] = test system: UACC-257
# [20] = test system: UO-31
Compound,GI50 [1],GI50 [2],GI50 [3],GI50 [4],GI50 [5],GI50 [6],GI50 [7],GI50 [8],GI50 [9],GI50 [10],GI50 [11],GI50 [12],GI50 [13],GI50 [14],GI50 [15],GI50 [16],GI50 [17],GI50 [18],GI50 [19],GI50 [20]
CC(C)(C)NC(=S)N/N=C/c1ccccn1,< 0.01 µM (active),< 0.01 µM (active),2.65 µM (inactive),< 0.0452 µM (active),< 0.01 µM (active),0.0851 µM (active),0.223 µM (active),3.61 µM (inactive),< 0.01 µM (active),3.72 µM (inactive),< 0.0155 µM (active),< 0.0106 µM (active),0.863 µM (active),3.4 µM (inactive),0.409 µM (active),< 0.01 µM (active),< 0.0113 µM (active),< 0.01 µM (active),< 0.0467 µM (active),0.259 µM (active)
N#CCCN(CCN(C(=O)Nc1ccccc1)c1ccccc1)C(=O)Nc1ccccc1,53.5 µM (inactive),54.6 µM (inactive),> 63 µM (inactive),> 100 µM (inactive),29.9 µM (inactive),77.6 µM (inactive),> 100 µM (inactive),63.8 µM (inactive),28.8 µM (inactive),> 100 µM (inactive),> 100 µM (inactive),17.6 µM (inactive),> 100 µM (inactive),> 91.6 µM (inactive),60.7 µM (inactive),42 µM (inactive),> 100 µM (inactive),> 35.1 µM (inactive),> 100 µM (inactive),31.2 µM (inactive)
O=[N+]([O-])/C(C(Cl)=C(Cl)Cl)=C(/Nc1ccccc1)Sc1ccccc1,18.5 µM (inactive),18.5 µM (inactive),32.8 µM (inactive),22.6 µM (inactive),20.6 µM (inactive),19.8 µM (inactive),15.7 µM (inactive),18.1 µM (inactive),19.8 µM (inactive),15.9 µM (inactive),15.7 µM (inactive),32.6 µM (inactive),14 µM (inactive),19.7 µM (inactive),20.3 µM (inactive),20.7 µM (inactive),25.1 µM (inactive),19.7 µM (inactive),16.6 µM (inactive),14 µM (inactive)
O=[N+]([O-])c1cc(Cl)cc2c1nc(NCCO)c1ccccc12,0.0435 µM (active),4.78 µM (inactive),15.6 µM (inactive),0.063 µM (active),4.39 µM (inactive),8.45 µM (inactive),21.1 µM (inactive),6.17 µM (inactive),3.78 µM (inactive),12.3 µM (inactive),12.1 µM (inactive),6.25 µM (inactive),23.8 µM (inactive),39.5 µM (inactive),1.35 µM (inactive),0.653 µM (active),4.5 µM (inactive),20.3 µM (inactive),13.8 µM (inactive),24.1 µM (inactive)
CC(C)(C)OC(=O)CN1CCNCCNCC1,> 100 µM (inactive),> 100 µM (inactive),> 100 µM (inactive),> 100 µM (inactive),> 100 µM (inactive),> 100 µM (inactive),> 100 µM (inactive),> 100 µM (inactive),> 100 µM (inactive),> 100 µM (inactive),> 100 µM (inactive),> 100 µM (inactive),> 100 µM (inactive),> 100 µM (inactive),> 100 µM (inactive),> 100 µM (inactive),> 100 µM (inactive),> 100 µM (inactive),> 100 µM (inactive),> 100 µM (inactive)
CCOC(=O)CCC(NC(=O)c1ccc(OCc2ccc3nc(-c4ccccc4)c(Cl)nc3c2)cc1)C(=O)OCC (stereo not given),> 100 µM (inactive),> 31.6 µM (inactive),15.6 µM (inactive),> 31.6 µM (inactive),3.88 µM (inactive),> 31.6 µM (inactive),24.3 µM (inactive),> 31.6 µM (inactive),> 31.6 µM (inactive),> 100 µM (inactive),> 31.6 µM (inactive),18.9 µM (inactive),15 µM (inactive),> 31.6 µM (inactive),> 31.6 µM (inactive),12.9 µM (inactive),> 31.6 µM (inactive),16.6 µM (inactive),> 31.6 µM (inactive),> 31.6 µM (inactive)
CCCCCCN(CCCCCC)C(=S)N/N=C(\C)c1ccccn1,0.321 µM (active),1.09 µM (active),0.906 µM (active),1.51 µM (inactive),0.105 µM (active),0.76 µM (active),1.15 µM (inactive),0.708 µM (active),0.179 µM (active),1.34 µM (inactive),0.506 µM (active),0.117 µM (active),0.345 µM (active),1.04 µM (active),1.03 µM (active),0.436 µM (active),0.718 µM (active),0.269 µM (active),1.6 µM (inactive),0.344 µM (active)
O=C1Nc2nccnc2C(=O)N2CCC[C@@H]12,> 100 µM (inactive),> 100 µM (inactive),> 100 µM (inactive),> 100 µM (inactive),> 100 µM (inactive),> 100 µM (inactive),> 100 µM (inactive),> 100 µM (inactive),> 100 µM (inactive),> 100 µM (inactive),> 100 µM (inactive),> 100 µM (inactive),> 100 µM (inactive),> 100 µM (inactive),> 100 µM (inactive),> 100 µM (inactive),> 100 µM (inactive),> 100 µM (inactive),> 100 µM (inactive),> 100 µM (inactive)
c1csc(-c2ccc(-c3cccs3)c3nsnc23)c1,6.56 µM (inactive),19.8 µM (inactive),35 µM (inactive),49.8 µM (inactive),9.68 µM (inactive),37.8 µM (inactive),22.4 µM (inactive),31.4 µM (inactive),8.89 µM (inactive),> 39.1 µM (inactive),2.04 µM (inactive),12.2 µM (inactive),33.7 µM (inactive),20.2 µM (inactive),> 33.6 µM (inactive),6.47 µM (inactive),17.1 µM (inactive),0.141 µM (active),> 65 µM (inactive),43.4 µM (inactive)
COC(=O)c1cc(C)ccc1CC(Cc1cccc(C)c1)C(=O)OC (stereo not given),> 100 µM (inactive),80.7 µM (inactive),25.8 µM (inactive),50.6 µM (inactive),45.7 µM (inactive),> 100 µM (inactive),> 100 µM (inactive),> 100 µM (inactive),23.4 µM (inactive),> 100 µM (inactive),> 100 µM (inactive),29.6 µM (inactive),13.6 µM (inactive),> 100 µM (inactive),34.8 µM (inactive),38.4 µM (inactive),> 100 µM (inactive),> 100 µM (inactive),> 100 µM (inactive),> 100 µM (inactive)
COc1ccc(C2c3c(-c4ccccc4)nn(-c4ccccc4)c3Oc3ncn(N)c(=N)c32)cc1OC (stereo not given),2.23 µM (inactive),1.67 µM (inactive),2.33 µM (inactive),1.93 µM (inactive),3.82 µM (inactive),2.04 µM (inactive),1.71 µM (inactive),1.85 µM (inactive),3.41 µM (inactive),1.6 µM (inactive),1.63 µM (inactive),2.73 µM (inactive),3.03 µM (inactive),2 µM (inactive),1.94 µM (inactive),3.53 µM (inactive),2.9 µM (inactive),1.97 µM (inactive),1.95 µM (inactive),1.68 µM (inactive)
COc1ccc(NC(=S)NNC(=O)c2cc(-c3ccccc3)nc3ccccc23)cc1,31.8 µM (inactive),12.4 µM (inactive),10.6 µM (inactive),19.9 µM (inactive),15.7 µM (inactive),15.4 µM (inactive),22.5 µM (inactive),2.95 µM (inactive),19.7 µM (inactive),11.2 µM (inactive),12 µM (inactive),11.4 µM (inactive),26.1 µM (inactive),10.4 µM (inactive),11.4 µM (inactive),2.81 µM (inactive),14.6 µM (inactive),14.9 µM (inactive),18.4 µM (inactive),11.4 µM (inactive)
COC(=O)[C@H](C)N(C)C(=O)[C@H](C)N1[C@@H](c2ccccc2)COC1(C)C,> 100 µM (inactive),> 100 µM (inactive),> 100 µM (inactive),> 100 µM (inactive),> 100 µM (inactive),> 100 µM (inactive),> 100 µM (inactive),> 100 µM (inactive),> 100 µM (inactive),> 100 µM (inactive),> 100 µM (inactive),> 100 µM (inactive),> 100 µM (inactive),> 100 µM (inactive),> 100 µM (inactive),> 100 µM (inactive),> 100 µM (inactive),> 100 µM (inactive),> 100 µM (inactive),> 100 µM (inactive)
Oc1c(-c2ccccc2)sc2ccccc12,13 µM (inactive),18.7 µM (inactive),21.9 µM (inactive),31.3 µM (inactive),13.7 µM (inactive),20.2 µM (inactive),7.55 µM (inactive),31.6 µM (inactive),24.7 µM (inactive),22.1 µM (inactive),10.2 µM (inactive),8.63 µM (inactive),60.7 µM (inactive),68.9 µM (inactive),16.7 µM (inactive),7.5 µM (inactive),48.3 µM (inactive),11 µM (inactive),25.2 µM (inactive),24.9 µM (inactive)
